# According to patent publication US8975259B2, “Compositions and methods for inhibiting G protein signaling” (University of Rochester, priority 2007, dated 2015):
# Read-outs that look alike come from different tables or passages of the source.
# Legend:
# Gβ1γ2 = Gβ1γ2 (UniProt P54311+P63212); experiment: Competition phage ELISA: inhibition of SIGK-phage binding to immobilized biotinylated Gβ1γ2; design: made in house; host or cells: Sf9 insect cells (baculovirus; co-expressed with BirA and (His)6-Gαi1, from which βγ was eluted); species or system rat; details: for binding to the G protein β subunit: result in words
# Protocol: Phage ELISA assays used to assess peptide binding to wild-type and mutant b-βγ were performed according to standard methods (Smrcka and Scott (2002) Methods Enzymol. 344:557-76). Briefly, 1 μg streptavidin was immobilized in the well of a […] overnight at 4° C. The wells were blocked with 100 μL of 2% bovine serum albumin (BSA) in Tris-buffered saline (TBS) for 1 hour at 4° C. followed by three washes of IX TBS/0.5% TWEEN®. […] The wells were washed, followed by the addition of IxIO^6 to IxIO^10 phage particles and incubated at 4° C. for 3 hours. The wells were then washed six times with TBS/0.5% TWEEN® followed by addition of 40 μL of 1:5000 dilution of anti-M13 antibody (Pharmacia, Uppsala, Sweden) and incubated at room temperature for 1 hour. The wells were washed, followed by the addition of 40 μL of (2,2′-Azino-bis (3-ethylbenzthiazoline)-6-sulfonic acid (ABTS) and the colorimetric reaction was monitored at 405 nm. Nonspecific binding was subtracted for each reading.
# A phage ELISA assay was used to determine whether small molecules identified in the computational screen could interact with the Gβy protein interaction surface. […] The screen was based on a reduction in the optical density (OD) of wells containing Gβγ subunits and phage. […] Three background wells contained no βy subunits.
# As disclosed herein, biotinylated Gβy subunits were immobilized on the surface of a 96-well plate coated with streptavidin, phage displaying Gβγ-binding peptides were subsequently added and binding in the presence and absence of test compounds detected with an anti-phage antibody.
# The phage ELISA assay was used to rapidly screen the ability of compounds to bind to the protein interaction “hot spot” based on the method of Scott et. al (Scott et al., 2001). This assay is performed in the presence of detergent (0.5% Tween) to eliminate non-specific compound aggregation artifacts.
# Compounds/DMSO and 0.1×10^10 phage were added simultaneously and subsequently incubated for 1 h at room temperature. Plates were then washed with 1× Tris-buffered saline/0.5% Tween 20 and incubated with anti-M13, HRP-conjugated antibody (Amersham, Chalfont St. Giles, Buckinghamshire, UK). Phage binding was determined by monitoring A405 upon addition of 2,2′-azino-bis(3-ethylbenzothiazoline-6-sulfonic acid) (Sigma Aldrich).
# Gβ1γ2 (Gβ1 mutants) [1] = target: T1, Gβ1γ2 (Gβ1 mutants) (UniProt P54311+P63212, N230A); experiment: Phage ELISA: binding of peptide-displaying phage to wild-type or alanine-substituted b-βγ; design: species or system rat; details: Gβ1 Asn230Ala; mean ± SD
# T1 construct: made in house; host or cells: Sf9 insect cells (baculovirus), partially purified via (His)6-Gαi1 on Ni-NTA
# From the text: (§1) Wild-type Gβ1 and Gp1 mutants were made in the baculovirus vector PDW464 which encodes a biotinylation site at a lysine upstream of the amino terminus of Gβ1 (Goubaeva, et al. (2003) supra). Mutants were generated by overlap extension PCR using standard protocols. The wild-type and mutant Gβ1 constructs consisted of a 20 amino acid biotin acceptor peptide (BAP) sequence fused in-frame with the amino-terminus of rat Gβ1 subunit. When coexpressed with biotin holoenzyme synthetase (BirA) in Sf9 cells, the Gβ1 subunit becomes covalently biotinylated in vivo at the specific lysine acceptor residue in the BAP. Using this approach, 1-2 mg protein of purified protein can be obtained per liter of Sf9 insect cells. As 45 ng of protein is used in the phage ELISA assay, a single purification is sufficient for 10,000 to 30,000 binding assays.
# (§2) Phage ELISA assays used to assess peptide binding to wild-type and mutant b-βγ were performed according to standard methods (Smrcka and Scott (2002) Methods Enzymol. 344:557-76). Briefly, 1 μg streptavidin was immobilized in the well of a […] overnight at 4° C. The wells were blocked with 100 μL of 2% bovine serum albumin (BSA) in Tris-buffered saline (TBS) for 1 hour at 4° C. followed by three washes of IX TBS/0.5% TWEEN®. Forty μL of 25 nM bGβ1γ2 in TBS/0.5% TWEEN® was added to each well and incubated at 4° C. for 1.5 hour. The wells were washed, followed by the addition of IxIO^6 to IxIO^10 phage particles and incubated at 4° C. for 3 hours. The wells were then washed six times with TBS/0.5% TWEEN® followed by addition of 40 μL of 1:5000 dilution of anti-M13 antibody (Pharmacia, Uppsala, Sweden) and incubated at room temperature for 1 hour. The wells were washed, followed by the addition of 40 μL of (2,2′-Azino-bis (3-ethylbenzthiazoline)-6-sulfonic acid (ABTS) and the colorimetric reaction was monitored at 405 nm. Nonspecific binding was subtracted for each reading.
# (§3) The nine peptides were selected to represent the different consensus groups of peptides previously identified (See Scott et al. (2001) supra; Table 15) and to compare binding characteristics within and between consensus groups. […] As disclosed herein, the binding signal obtained in the ELISA assay was correlated to a loss in affinity by comparing the results to behavior of the peptide in a solution based assay. […] For the purposes of present disclosure, any substitution that decreased the binding to less than 20% of the wild-type binding was considered to be a critical binding contact for that peptide.
# Gβ1γ2 (Gβ1 mutants) [2] = target: T2, Gβ1γ2 (Gβ1 mutants) (UniProt P54311+P63212, R314A); experiment: as above; design: species or system rat; details: Gβ1 Arg314Ala; mean ± SD
# T2 construct: made in house; host or cells: Sf9 insect cells (baculovirus), partially purified via (His)6-Gαi1 on Ni-NTA
# From the text: as §1, §2, §3
# Gβ1γ2 (Gβ1 mutants) [3] = target: T3, Gβ1γ2 (Gβ1 mutants) (UniProt P54311+P63212, Y59A); experiment: as above; design: species or system rat; details: Gβ1 Tyr59Ala; mean ± SD
# T3 construct: made in house; host or cells: Sf9 insect cells (baculovirus), partially purified via (His)6-Gαi1 on Ni-NTA
# From the text: as §1, §2, §3
# Gβ1γ2 (Gβ1 mutants) [4] = target: T4, Gβ1γ2 (Gβ1 mutants) (UniProt P54311+P63212, W99A); experiment: as above; design: species or system rat; details: Gβ1 Trp99Ala; mean ± SD
# T4 construct: made in house; host or cells: Sf9 insect cells (baculovirus), partially purified via (His)6-Gαi1 on Ni-NTA
# From the text: as §1, §2, §3
# Gβ1γ2 (Gβ1 mutants) [5] = target: T5, Gβ1γ2 (Gβ1 mutants) (UniProt P54311+P63212, Y145A); experiment: as above; design: species or system rat; details: Gβ1 Tyr145Ala; mean ± SD
# T5 construct: made in house; host or cells: Sf9 insect cells (baculovirus), partially purified via (His)6-Gαi1 on Ni-NTA
# From the text: as §1, §2, §3
# Gβ1γ2 (Gβ1 mutants) [6] = target: T6, Gβ1γ2 (Gβ1 mutants) (UniProt P54311+P63212, M101A); experiment: as above; design: species or system rat; details: Gβ1 Met101Ala; mean ± SD
# T6 construct: made in house; host or cells: Sf9 insect cells (baculovirus), partially purified via (His)6-Gαi1 on Ni-NTA
# From the text: as §1, §2, §3
# Gβ1γ2 (Gβ1 mutants) [7] = target: T7, Gβ1γ2 (Gβ1 mutants) (UniProt P54311+P63212, W332A); experiment: as above; design: species or system rat; details: Gβ1 Trp332Ala; mean ± SD
# T7 construct: made in house; host or cells: Sf9 insect cells (baculovirus), partially purified via (His)6-Gαi1 on Ni-NTA
# From the text: as §1, §2, §3
# Gβ1γ2 (Gβ1 mutants) [8] = target: T8, Gβ1γ2 (Gβ1 mutants) (UniProt P54311+P63212, D186A); experiment: as above; design: species or system rat; details: Gβ1 Asp186Ala; mean ± SD
# T8 construct: made in house; host or cells: Sf9 insect cells (baculovirus), partially purified via (His)6-Gαi1 on Ni-NTA
# From the text: as §1, §2, §3
# Gβ1γ2 (Gβ1 mutants) [9] = target: T9, Gβ1γ2 (Gβ1 mutants) (UniProt P54311+P63212, D246S); experiment: as above; design: species or system rat; details: Gβ1 Asp246Ser; mean ± SD
# T9 construct: made in house; host or cells: Sf9 insect cells (baculovirus), partially purified via (His)6-Gαi1 on Ni-NTA
# From the text: as §1, §2, §3
# Gβ1γ2 (Gβ1 mutants) [10] = target: T10, Gβ1γ2 (Gβ1 mutants) (UniProt P54311+P63212, K57A); experiment: as above; design: species or system rat; details: Gβ1 Lys57Ala; mean ± SD
# T10 construct: made in house; host or cells: Sf9 insect cells (baculovirus), partially purified via (His)6-Gαi1 on Ni-NTA
# From the text: as §1, §2, §3
# Gβ1γ2 (Gβ1 mutants) [11] = target: T11, Gβ1γ2 (Gβ1 mutants) (UniProt P54311+P63212, H311A); experiment: as above; design: species or system rat; details: Gβ1 His311Ala; mean ± SD
# T11 construct: made in house; host or cells: Sf9 insect cells (baculovirus), partially purified via (His)6-Gαi1 on Ni-NTA
# From the text: as §1, §2, §3
# Gβ1γ2 (Gβ1 mutants) [12] = target: T12, Gβ1γ2 (Gβ1 mutants) (UniProt P54311+P63212, M188A); experiment: as above; design: species or system rat; details: Gβ1 Met188Ala; mean ± SD
# T12 construct: made in house; host or cells: Sf9 insect cells (baculovirus), partially purified via (His)6-Gαi1 on Ni-NTA
# From the text: as §1, §2, §3
# Gβ1γ2 (Gβ1 mutants) [13] = target: T13, Gβ1γ2 (Gβ1 mutants) (UniProt P54311+P63212, L117A); experiment: as above; design: species or system rat; details: Gβ1 Leu117Ala; mean ± SD
# T13 construct: made in house; host or cells: Sf9 insect cells (baculovirus), partially purified via (His)6-Gαi1 on Ni-NTA
# From the text: as §1, §2, §3
# [14] = Table 18, compounds identified in Elisa screen, read-out: IC50
compound,measurement,setting,value
Cc1c2ccc(=O)cc-2oc2cc(O)ccc12 [6-hydroxy-9-methyl-3H-xanthen-3-one],binding to the G protein β subunit,Gβ1γ2,not to bind
"O=C(O)/C=C/c1c2ccc(=O)c(O)c-2oc2c(O)c(O)ccc12 [(E)-3-(4,5,6-trihydroxy-3-oxo-3H-xanthen-9-yl)acrylic acid]",IC50,"Gβ1γ2; kind of constant not stated, read-out: binding to the G protein β subunit",0.2 µM
O=C(O)/C=C/c1c2ccc(=O)cc-2oc2cc(O)ccc12 [(E)-3-(6-hydroxy-3-oxo-3H-xanthe-9-yl)acrylic acid],binding to the G protein β subunit,Gβ1γ2,Neither of these compounds showed any binding
Nc1c(S(=O)(=O)O)cc(Nc2cccc(S(N)(=O)=O)c2)c2c1C(=O)c1ccccc1C2=O [Compound M117],IC50,"Gβ1γ2; Table 8, read-out: IC50",43 µM
same,IC50,Gβ1γ2; [14],56 µM
Nc1ccc(-c2ccc(Nc3cc(S(=O)(=O)O)c(N)c4c3C(=O)c3ccccc3C4=O)cc2)c(S(=O)(=O)O)c1 [Compound M125],IC50,"Gβ1γ2; Table 8, read-out: IC50",68 µM
same,IC50,Gβ1γ2; [14],18 µM
Nc1c(S(=O)(=O)O)cc(Nc2cccc(S(N)(=O)=O)c2)c2c1C(=O)c1ccccc1C2=O [drawing 50],IC50,"Gβ1γ2; Table 2, read-out: Elisa IC50",56 µM
Nc1ccc(Nc2cc(S(=O)(=O)O)c(N)c3c2C(=O)c2ccccc2C3=O)cc1 [drawing 51],IC50,"Gβ1γ2; Table 2, read-out: Elisa IC50",12 µM
Nc1cccc(Nc2cc(S(=O)(=O)O)c(N)c3c2C(=O)c2ccccc2C3=O)c1 [drawing 52],IC50,"Gβ1γ2; Table 2, read-out: Elisa IC50",19 µM
Nc1ccc(-c2ccc(Nc3cc(S(=O)(=O)O)c(N)c4c3C(=O)c3ccccc3C4=O)cc2)c(S(=O)(=O)O)c1 [drawing 54],IC50,"Gβ1γ2; Table 2, read-out: Elisa IC50",18 µM
O=C(O)C1CCCCC1c1c2ccc(=O)c(O)c-2oc2c(O)c(O)ccc12 (centres unmarked) [drawing 103],IC50,"Gβ1γ2; SIGK IC50, Table 6",0.2 µM
O=C(O)c1cccc2cccc(-c3c4ccc(=O)c(O)c-4oc4c(O)c(O)ccc34)c12 [drawing 108],IC50,Gβ1γ2; Table 6,0.15 µM
LCSKAYLLLGQTC [Compound 2F],% of Wild-Type Signal,Gβ1γ2 (Gβ1 mutants) [1],27.6 ± 19.1%
same,% of Wild-Type Signal,Gβ1γ2 (Gβ1 mutants) [2],2.4 ± 3.9%
same,% of Wild-Type Signal,Gβ1γ2 (Gβ1 mutants) [3],−2.0 ± 9.5%
same,% of Wild-Type Signal,Gβ1γ2 (Gβ1 mutants) [4],32.6 ± 26.3%
same,% of Wild-Type Signal,Gβ1γ2 (Gβ1 mutants) [5],0.1 ± 6.5%
same,% of Wild-Type Signal,Gβ1γ2 (Gβ1 mutants) [6],6.0 ± 5.1%
same,% of Wild-Type Signal,Gβ1γ2 (Gβ1 mutants) [7],−1.5 ± 3.6%
same,% of Wild-Type Signal,Gβ1γ2 (Gβ1 mutants) [8],2.4 ± 3.5%
same,% of Wild-Type Signal,Gβ1γ2 (Gβ1 mutants) [9],0.6 ± 2.5%
same,% of Wild-Type Signal,Gβ1γ2 (Gβ1 mutants) [10],−4.5 ± 6.2%
same,% of Wild-Type Signal,Gβ1γ2 (Gβ1 mutants) [11],23.6 ± 46.0%
same,% of Wild-Type Signal,Gβ1γ2 (Gβ1 mutants) [12],8.5 ± 5.2%
same,% of Wild-Type Signal,Gβ1γ2 (Gβ1 mutants) [13],2.1 ± 5.5%
